For four compounds, Kd results are on record in PMC12247152, “Nature‐Inspired Compounds Targeting Escherichia coli WrbA as Biofilm‐Modulating Agents: Computational Design, Synthesis, and Biological Evaluation” (Archiv Der Pharmazie, 2025).

The target of the assay is T1, WrbA (Escherichia coli, UniProt P0A8G6).
T1 construct: recombinant WrbA protein
The experiment in a line: microscale thermophoresis (MST). The conditions noted are these: read-out: K d ± confidence. It counts as binding. In general terms: Microscale thermophoresis detects binding through changes in fluorescence in a small temperature gradient.

T1 sequence (P0A8G6 2-198): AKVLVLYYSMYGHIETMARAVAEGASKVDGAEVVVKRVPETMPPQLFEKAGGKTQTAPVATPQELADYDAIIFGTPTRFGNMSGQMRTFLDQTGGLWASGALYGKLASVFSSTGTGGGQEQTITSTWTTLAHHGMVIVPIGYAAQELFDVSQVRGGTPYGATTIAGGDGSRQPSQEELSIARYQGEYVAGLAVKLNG

For the compound `CC1(C)CC(=O)c2c(O)cc(OCC(N)=O)cc2O1` [1a, 2‐[(5‐Hydroxy‐2,2‐dimethyl‐4‐oxochroman‐7‐yl)oxy]acetamide], the Kd was found to be 18.7 ± 6.3 µM.
Under `CC1(C)CC(=O)c2c(O)cc(OCC(=O)NCCNCc3ccccc3)cc2O1` [1c, N‐[2‐(Benzylamino)ethyl]‐2‐[(5‐hydroxy‐2,2‐dimethyl‐4‐oxochroman‐7‐yl)oxy]acetamide] stands 1.4 ± 0.7 µM; under `CC1(C)CC(=O)c2c(O)cc(OCC(=O)NCc3cccc(Cl)c3)cc2O1` [1d, N‐(3‐Chlorobenzyl)‐2‐[(5‐hydroxy‐2,2‐dimethyl‐4‐oxochroman‐7‐yl)oxy]acetamide], 5 ± 1.8 µM; under `CC1(C)CC(=O)c2c(O)cc(OCC(=O)NCc3cccc4ccccc34)cc2O1` [1e, 2‐[(5‐Hydroxy‐2,2‐dimethyl‐4‐oxochroman‐7‐yl)oxy]‐N‐(naphthalen‐1‐ylmethyl)acetamide], 2.1 ± 1.3 µM.
